Calls of active or inactive are those of the source. No cut-off for these calls is given here.
Experiments:
[1] = Cmax in Sprague-Dawley rat at 25 mg/kg, po; assay type: ADME, organism-based; parameters: dose 25 mg/kg, route oral; conditions: in vivo
[2] = Terminal half life in Sprague-Dawley rat at 25 mg/kg, po; assay type: ADME, organism-based; parameters: dose 25 mg/kg, route oral; conditions: in vivo, read-out: beta t1/2 (converted)
[3] = Oral bioavailability in Sprague-Dawley rat at 25 mg/kg; assay type: ADME, organism-based; conditions: in vivo
SJSA-1 [4] = experiment: Induction of cell death in human SJSA1 cells by trypan blue staining; assay type: functional, cell-based
SJSA-1 [5] = experiment: Induction of cell death in human SJSA1 cells at 1. 25 uM after 2 days by trypan blue staining; assay type: functional
HCT-116 [6] = experiment: cells; conditions: Homo sapiens, HCT-116, 96 h
HCT-116 [7] = experiment: cells; conditions: Homo sapiens, HCT-116, 96 h; remark: listed apart in the source
[8] = biological target: T1, Tumour suppressor p53/oncoprotein Mdm2 (Homo sapiens) (UniProt P04637+Q00987); experiment: Inhibition of MDM2-p53 interaction in human SJSA1 cells expressing wild type p53 assessed as increase in MDM2 protein level at 10 uM by Western blot; assay type: cell-based; conditions: SJSA-1
T1 sequence (P04637 whole entry, looked up): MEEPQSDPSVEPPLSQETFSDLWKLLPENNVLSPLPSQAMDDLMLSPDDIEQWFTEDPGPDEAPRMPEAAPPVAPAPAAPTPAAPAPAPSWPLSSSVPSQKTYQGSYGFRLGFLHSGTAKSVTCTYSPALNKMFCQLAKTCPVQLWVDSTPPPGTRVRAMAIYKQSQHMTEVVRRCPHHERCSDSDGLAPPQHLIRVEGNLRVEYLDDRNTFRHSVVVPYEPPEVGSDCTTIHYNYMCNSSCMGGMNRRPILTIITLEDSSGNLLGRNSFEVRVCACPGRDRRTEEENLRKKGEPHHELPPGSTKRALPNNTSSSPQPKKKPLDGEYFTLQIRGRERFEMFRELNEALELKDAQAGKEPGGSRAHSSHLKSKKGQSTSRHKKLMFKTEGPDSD
T1 sequence (Q00987 whole entry, looked up): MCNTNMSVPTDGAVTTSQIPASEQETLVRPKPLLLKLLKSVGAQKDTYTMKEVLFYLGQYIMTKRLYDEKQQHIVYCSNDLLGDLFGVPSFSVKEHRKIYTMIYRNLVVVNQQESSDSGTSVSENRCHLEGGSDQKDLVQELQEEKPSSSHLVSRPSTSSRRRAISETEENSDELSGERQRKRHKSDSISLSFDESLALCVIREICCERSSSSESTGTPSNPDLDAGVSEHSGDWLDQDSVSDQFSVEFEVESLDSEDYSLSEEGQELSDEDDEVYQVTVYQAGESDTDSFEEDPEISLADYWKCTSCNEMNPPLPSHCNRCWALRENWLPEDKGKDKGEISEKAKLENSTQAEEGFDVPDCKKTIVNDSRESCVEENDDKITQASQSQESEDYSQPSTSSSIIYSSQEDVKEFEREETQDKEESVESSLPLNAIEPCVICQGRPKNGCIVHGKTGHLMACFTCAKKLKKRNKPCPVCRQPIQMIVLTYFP

[9] = biological target: T1, Tumour suppressor p53/oncoprotein Mdm2 (Homo sapiens); experiment: Inhibition of MDM2-p53 interaction in human SJSA1 cells expressing wild type p53 assessed as increase in p21 protein level at 10 uM by Western blot; assay type: cell-based; conditions: SJSA-1
Rattus norvegicus [10] = experiment: AUC (0 to t) in Sprague-Dawley rat at 25 mg/kg, po; assay type: ADME, organism-based, Plasma; parameters: dose 25 mg/kg, route oral; conditions: in vivo
[11] = Cmax in Sprague-Dawley rat at 50 mg/kg, po; assay type: ADME, organism-based; parameters: dose 50 mg/kg, route oral; conditions: in vivo
Rattus norvegicus [12] = experiment: AUC (0 to t) in Sprague-Dawley rat at 50 mg/kg, po; assay type: ADME, organism-based, Plasma; parameters: dose 50 mg/kg, route oral; conditions: in vivo
[13] = Terminal half life in Sprague-Dawley rat at 50 mg/kg, po; assay type: ADME, organism-based; parameters: dose 50 mg/kg, route oral; conditions: in vivo, read-out: beta t1/2 (converted)
[14] = Oral bioavailability in Sprague-Dawley rat at 50 mg/kg; assay type: ADME, organism-based; conditions: in vivo
SAOS-2 = experiment: Induction of cell death in human Saos2 cells deficient in wild type p53 at 10 uM by trypan blue staining; assay type: functional, cell-based
Mus musculus [15] = experiment: Toxicity in mouse xenografted with human SJSA1 cells assessed as weight loss at 300 mg/kg, po qd for 14 days relative to untreated control; assay type: organism-based, SJSA-1; parameters: dose 300 mg/kg, route oral; conditions: in vivo, 336 h
Mus musculus [16] = experiment: Toxicity in mouse xenografted with human SJSA1 cells assessed as occurrence of toxicity symptoms at 300 mg/kg, po qd for 14 days relative to untreated control; assay type: organism-based, SJSA-1; parameters: dose 300 mg/kg, route oral; conditions: in vivo, 336 h

Structure (SMILES)	Cmax [1]	half-life [2]	bioavailability [3]	IC50 (HCT-116 [6])	IC50 (HCT-116 [7])	further results
CC(C)(C)C[C@H]1N[C@@H](C(=O)NCC[C@H](O)CO)[C@H](c2cccc(Cl)c2)[C@@]12C(=O)Nc1cc(Cl)c(F)cc12	3750 ng/mL	1.4 h	65%	1100 nM	24800 nM	Activity (SJSA-1 [4]): Dose-dependent effect; Activity (SJSA-1 [5]): 20%
CN1CCN(CCNC(=O)[C@@H]2N[C@H](CC(C)(C)C)[C@]3(C(=O)Nc4cc(Cl)ccc43)[C@H]2c2cccc(Cl)c2F)CC1	274 ng/mL	3.8 h	31%	400 nM		
CC(C)(C)C[C@H]1N[C@@H](C(=O)NCCN2CCOCC2)[C@H](c2cccc(Cl)c2F)[C@@]12C(=O)Nc1cc(Cl)ccc12	248 ng/mL	1.3 h	10%	700 nM		
COc1ccc2c(c1)NC(=O)[C@]21[C@@H](CC(C)(C)C)N[C@@H](C(=O)N(C)C)[C@@H]1c1cccc(Br)c1						Activity [8]: inactive; Activity [9]: inactive
COCCOCCNC(=O)[C@@H]1N[C@H](CC(C)(C)C)[C@]2(C(=O)Nc3cc(Cl)ccc32)[C@H]1c1cccc(Cl)c1F	97 ng/mL	1.2 h	5%	800 nM		
CN1CCC(CCNC(=O)[C@@H]2N[C@H](CC(C)(C)C)[C@]3(C(=O)Nc4cc(Cl)ccc43)[C@H]2c2cccc(Cl)c2F)CC1	120 ng/mL	7.1 h	14%	400 nM	7300 nM	
CC(C)(C)C[C@H]1N[C@@H](C(=O)NCC[C@@H](O)CO)[C@H](c2cccc(Cl)c2)[C@@]12C(=O)Nc1cc(Cl)c(F)cc12	3550 ng/mL	3.4 h	31%	2800 nM	32800 nM	AUC (Rattus norvegicus [10]): 11700 ng·h/mL
CC(C)(C)C[C@H]1N[C@@H](C(=O)NC[C@H](O)CO)[C@H](c2cccc(Cl)c2)[C@@]12C(=O)Nc1cc(Cl)c(F)cc12	2070 ng/mL	3.2 h	18%	1300 nM	23600 nM	
CC(C)(C)C[C@H]1N[C@@H](C(=O)NCC[C@H](O)CO)[C@H](c2cccc(Cl)c2F)[C@@]12C(=O)Nc1cc(Cl)ccc12				400 nM	16000 nM	Cmax [11]: 1510 ng/mL; AUC (Rattus norvegicus [12]): 8770 ng·h/mL; half-life [13]: 3.9 h; bioavailability [14]: 21%; Activity (SJSA-1 [4]): Dose-dependent effect; Activity (SJSA-1 [5]): 50%; Activity (SAOS-2): inactive; Activity (Mus musculus [15]): Non-toxic; Activity (Mus musculus [16]): Non-toxic
CC(C)(C)C[C@H]1N[C@@H](C(=O)NCC[C@H](O)CO)[C@H](c2cccc(Cl)c2)[C@@]12C(=O)Nc1cc(Cl)ccc12	805 ng/mL	3 h	19%	800 nM		
